Tested on: angioedema in CSU patients
Assay: Phase 2 CSU study: angioedema activity score over 7 days (AAS7)
Format: in vivo, human
Parameters: AAS7, Median / AAS7 Change from baseline, Median: scale not given here
Description: The study comprises a 12 week, randomized, double-blind, placebo-controlled, multi-center, dose-ranging efficacy and safety phase, followed by a 40 week open label extension (OLE) phase (see FIG. 1). The study consists of three phases and an optional OLE phase. […] The weekly angioedema activity score (AAS7) was proposed as a tertiary endpoint. […] Patients were to complete the AAS using the e-diary. The e-diary was to be used once daily on the same time of each day recording of participant's answers to the angioedema activity score over 7 days (AAS7) questionnaire.

[1] = Patients with Prior Omalizumab Use, 400 mg TID, Week 1
[2] = Patients with Prior Omalizumab Use, 400 mg TID, Week 2
[3] = Patients with Prior Omalizumab Use, 400 mg TID, Week 3
[4] = Patients with Prior Omalizumab Use, 400 mg TID, Week 4
[5] = Patients with Prior Omalizumab Use, 400 mg TID, Week 5
[6] = Patients with Prior Omalizumab Use, 400 mg TID, Week 6
[7] = Patients with Prior Omalizumab Use, 400 mg TID, Week 7
[8] = Patients with Prior Omalizumab Use, 400 mg TID, Week 8
[9] = Week 8, 400 mg BID, Incomplete Responders with angioedema at baseline, double-blind period
[10] = Week 8, 400 mg QPM, Incomplete Responders with angioedema at baseline, double-blind period
[11] = Week 8, 400 mg TID, Incomplete Responders with angioedema at baseline, double-blind period
[12] = Week 9, 400 mg BID, Incomplete Responders with angioedema at baseline, double-blind period
[13] = Week 9, 400 mg QPM, Incomplete Responders with angioedema at baseline, double-blind period
[14] = Week 9, 400 mg TID, Incomplete Responders with angioedema at baseline, double-blind period
[15] = Week 10, 400 mg BID, Incomplete Responders with angioedema at baseline, double-blind period
[16] = Week 10, 400 mg QPM, Incomplete Responders with angioedema at baseline, double-blind period
[17] = Week 10, 400 mg TID, Incomplete Responders with angioedema at baseline, double-blind period
[18] = Week 11, 400 mg BID, Incomplete Responders with angioedema at baseline, double-blind period
[19] = Week 11, 400 mg QPM, Incomplete Responders with angioedema at baseline, double-blind period
[20] = Week 11, 400 mg TID, Incomplete Responders with angioedema at baseline, double-blind period
[21] = Week 12, 400 mg BID, Incomplete Responders with angioedema at baseline, double-blind period
[22] = Week 12, 400 mg QPM, Incomplete Responders with angioedema at baseline, double-blind period
[23] = Week 12, 400 mg TID, Incomplete Responders with angioedema at baseline, double-blind period

CC(C)(C=C(C#N)C(=O)N1CCC[C@@H](n2nc(-c3ccc(Oc4ccccc4)cc3F)c3c(N)ncnc32)C1)N1CCN(C2COC2)CC1 [rilzabrutinib, (R)-2-[3-[4-amino-3-(2-fluoro-4-phenoxy-phenyl)pyrazolo[3,4-d]pyrimidin-1-yl]piperidine-1-carbonyl]-4-methyl-4-[4-(oxetan-3-yl)piperazin-1-yl]pent-2-enenitrile]
AAS7 Change from baseline, Median (Patients with Prior Omalizumab Use, 400 mg QPM, Week 8): −50.00
AAS7, Mean (SD) [1]: 6.33 (7.77)
AAS7, Median [1]: 4.00
AAS7 Change from baseline, Median [1]: −25.83
AAS7 Percent change from baseline, Mean (SD) [1]: −79.91 (18.61) %
AAS7 Percent change from baseline, Median [1]: −76.47%
AAS7, Mean (SD) [2]: 4.00 (6.93)
AAS7, Median [2]: 0.00
AAS7 Change from baseline, Mean (SD) [2]: −27.28 (19.44)
AAS7 Change from baseline, Median [2]: −36.00
AAS7 Percent change from baseline, Mean (SD) [2]: −76.47 (40.75) %
AAS7 Percent change from baseline, Median [2]: −100.00%
AAS7, Mean (SD) [3]: 7.00 (7.00)
AAS7, Median [3]: 7.00
AAS7 Change from baseline, Mean (SD) [3]: −24.28 (18.46)
AAS7 Change from baseline, Median [3]: −33.83
AAS7 Percent change from baseline, Mean (SD) [3]: −66.83 (43.45) %
AAS7 Percent change from baseline, Median [3]: −82.86%
AAS7, Mean (SD) [4]: 7.11 (6.30)
AAS7, Median [4]: 9.33
AAS7 Change from baseline, Mean (SD) [4]: −24.17 (16.75)
AAS7 Change from baseline, Median [4]: −31.50
AAS7 Percent change from baseline, Mean (SD) [4]: −68.85 (36.02) %
AAS7 Percent change from baseline, Median [4]: −77.14%
AAS7, Median [5]: 19.83
AAS7 Change from baseline, Mean (SD) [5]: −18.00 (19.67)
AAS7 Change from baseline, Median [5]: −21.00
AAS7 Percent change from baseline, Mean (SD) [5]: −44.59 (59.12) %
AAS7 Percent change from baseline, Median [5]: −51.43%
AAS7, Mean (SD) [6]: 7.00 (8.19)
AAS7, Median [6]: 5.00
AAS7 Change from baseline, Mean (SD) [6]: −24.28 (20.16)
AAS7 Change from baseline, Median [6]: −35.83
AAS7 Percent change from baseline, Mean (SD) [6]: −64.55 (51.17) %
AAS7 Percent change from baseline, Median [6]: −87.76%
AAS7, Mean (SD) [7]: 9.72 (16.84)
AAS7, Median [7]: 0.00
AAS7 Change from baseline, Mean (SD) [7]: −21.56 (12.79)
AAS7 Change from baseline, Median [7]: −17.00
AAS7 Percent change from baseline, Mean (SD) [7]: −76.19 (41.24) %
AAS7 Percent change from baseline, Median [7]: −100.00%
AAS7, Mean (SD) [8]: 4.67 (7.23)
AAS7, Median [8]: 1.00
AAS7 Change from baseline, Mean (SD) [8]: −26.61 (19.68)
AAS7 Change from baseline, Median [8]: −36.00
AAS7 Percent change from baseline, Mean (SD) [9]: −100.00 (0.00)
AAS7 Percent change from baseline, Median [9]: −100.00
AAS7 Percent change from baseline, Mean (SD) [10]: −73.53 (NC)
AAS7 Percent change from baseline, Median [10]: −73.53
AAS7 Percent change from baseline, Mean (SD) [11]: −73.69 (43.46)
AAS7 Percent change from baseline, Median [11]: −97.55
AAS7, Mean (SD) [12]: 0.00 (0.00)
AAS7, Median [12]: 0.00
AAS7 Change from baseline, Mean (SD) [12]: −39.50 (3.54)
AAS7 Change from baseline, Median [12]: −39.50
AAS7 Percent change from baseline, Mean (SD) [12]: −100.00 (0.00)
AAS7 Percent change from baseline, Median [12]: −100.00
AAS7, Mean (SD) [13]: 10.00 (NC)
AAS7 Change from baseline, Mean (SD) [13]: −58.00 (NC)
AAS7 Change from baseline, Median [13]: −58.00
AAS7 Percent change from baseline, Mean (SD) [13]: −85.29 (NC)
AAS7 Percent change from baseline, Median [13]: −85.29
AAS7, Mean (SD) [14]: 4.39 (6.62)
AAS7, Median [14]: 1.17
AAS7 Change from baseline, Mean (SD) [14]: −26.89 (19.04)
AAS7 Change from baseline, Median [14]: −36.00
AAS7 Percent change from baseline, Mean (SD) [14]: −75.52 (39.95)
AAS7 Percent change from baseline, Median [14]: −97.14
AAS7, Mean (SD) [15]: 0.00 (0.00)
AAS7, Median [15]: 0.00
AAS7 Change from baseline, Mean (SD) [15]: −39.50 (3.54)
AAS7 Change from baseline, Median [15]: −39.50
AAS7 Percent change from baseline, Mean (SD) [15]: −100.00 (0.00)
AAS7 Percent change from baseline, Median [15]: −100.00
AAS7, Mean (SD) [16]: 0.00 (NC)
AAS7, Median [16]: 0.00
AAS7 Change from baseline, Mean (SD) [16]: −68.00 (NC)
AAS7 Change from baseline, Median [16]: −68.00
AAS7 Percent change from baseline, Mean (SD) [16]: −100.00 (NC)
AAS7 Percent change from baseline, Median [16]: −100.00
AAS7, Mean (SD) [17]: 9.00 (10.15)
AAS7, Median [17]: 7.00
AAS7 Change from baseline, Mean (SD) [17]: −22.28 (21.92)
AAS7 Change from baseline, Median [17]: −33.83
AAS7 Percent change from baseline, Mean (SD) [17]: −55.07 (63.56)
AAS7 Percent change from baseline, Median [17]: −82.86
AAS7, Mean (SD) [18]: 0.00 (0.00)
AAS7, Median [18]: 0.00
AAS7 Change from baseline, Mean (SD) [18]: −39.50 (3.54)
AAS7 Change from baseline, Median [18]: −39.50
AAS7 Percent change from baseline, Mean (SD) [18]: −100.00 (0.00)
AAS7 Percent change from baseline, Median [18]: −100.00
AAS7, Mean (SD) [19]: 0.00 (NC)
AAS7, Median [19]: 0.00
AAS7 Change from baseline, Mean (SD) [19]: −68.00 (NC)
AAS7 Change from baseline, Median [19]: −68.00
AAS7 Percent change from baseline, Mean (SD) [19]: −100.00 (NC)
AAS7 Percent change from baseline, Median [19]: −100.00
AAS7, Median [20]: 0.00
AAS7 Change from baseline, Mean (SD) [20]: −24.61 (24.03)
AAS7 Change from baseline, Median [20]: −36.00
AAS7 Percent change from baseline, Mean (SD) [20]: −60.78 (67.92)
AAS7 Percent change from baseline, Median [20]: −100.00
AAS7, Mean (SD) [21]: 0.00 (0.00)
AAS7, Median [21]: 0.00
AAS7 Change from baseline, Mean (SD) [21]: −39.50 (3.54)
AAS7 Change from baseline, Median [21]: −39.50
AAS7 Percent change from baseline, Mean (SD) [21]: −100.00 (0.00)
AAS7 Percent change from baseline, Median [21]: −100.00
AAS7, Mean (SD) [22]: 5.00 (NC)
AAS7, Median [22]: 5.00
AAS7 Change from baseline, Mean (SD) [22]: −63.00 (NC)
AAS7 Change from baseline, Median [22]: −63.00
AAS7 Percent change from baseline, Mean (SD) [22]: −92.65 (NC)
AAS7 Percent change from baseline, Median [22]: −92.65
AAS7 Change from baseline, Mean (SD) [23]: −16.50 (27.58)
AAS7 Change from baseline, Median [23]: −16.50
AAS7 Percent change from baseline, Mean (SD) [23]: −41.18 (83.19)
AAS7 Percent change from baseline, Median [23]: −41.18

Reference: patent US20260256792A1, “TREATMENT OF CHRONIC SPONTANEOUS URTICARIA BY ADMINISTERING (R)-2-[3-[4-AMINO-3-(2-FLUORO-4-PHENOXY-PHENYL)PYRAZOLO[3,4-D]PYRIMIDIN-1-YL]PIPERIDINE-1-CARBONYL]-4-METHYL-4-[4-(OXETAN-3-YL)PIPERAZIN-1-YL]PENT-2-ENENITRILE” (priority 2023, published 2026)
